Data from PMC10417336 (Animals : an Open Access Journal from MDPI, 2023).
“And” between values parts separate entries of the source, which are not always exact repeats. Equal entries are not always repeated. Where two headings read alike, the source gives them in different places.

Experiments:
[1] = tested on: rainbow trout (Oncorhynchus mykiss); conditions: cited from earlier work
[2] = tested on: sea cucumbers (Apostichopus japonicus); conditions: cited from earlier work
[3] = Table 1, source not given; cited from earlier work
Danio rerio = conditions: listed as SDZ; cited from earlier work
[4] = tested on: lambari (Astyanax bimaculatus); conditions: for T1/2, half-life time: t1/2=ln2/Ke
Method: The feed used in the experiment was purchased commercially and contained 45% protein (GuabiTech, Campinas, SP, Brazil). The amount of ^14C SDZ (Sigma-Aldrich; Saint Louis, MO, USA, Hen- 5154X Riedel) used in the experiment was the one that gave the lowest reading signal in the liquid scintillation spectrometer. Thus, the amount of feed per fish was the equivalent of 1% of body weight, 12 mg·day^−1, totaling 3528 mg of feed contaminated with 5540.38 Bq of radioactive product. The feed was homogenized after the application of the ^14C SDZ to ensure that all of the drug was evenly distributed in the feed. For confirmation, seven 50 mg samples of contaminated feed were used for the liquid scintillation spectrometer reading.
The bioaccumulation and depletion study using lambari was conducted to evaluate how the elimination of the SDZ molecule works after treatment. The experiment was performed based on the guidelines of the Organization for Economic Cooperation and Development standard no. 305 [17] and VICH-FDA [18], with adaptations for the use of radiolabeled molecules.
The lambari fingerlings were acquired from a commercial fish farm, without distinction between male and female. A total of 100 healthy fish were placed in a tank with 200 L of (chlorine-free) water. The acclimatization took place over 15 days, during which the fish were fed three times daily with commercial fish food. The water temperature was maintained at 25 °C ± 1 °C and pH 7. Feeding of the fry was stopped 24 h before the experiment.
The tests were divided into two stages, seven days of exposure and seven days of depuration. After the acclimatization process, 84 fish (approximately 5 cm long and weighing approximately 1.0 to 1.4 g) were used in the experiment. The experiment was conducted in 8 L stainless steel tanks with three replicates and two controls, with 14 fish placed in each tank. The water temperature was maintained at 25 °C ± 1 °C, pH 7, under permanent aeration, with a 12 h photoperiod. Water temperature and pH were analyzed daily.
The exposure phase of the fish to the antibiotic lasted 7 consecutive days, during which the medicated feed was offered three times a day. Control fish were fed uncontaminated feed. For the depletion phase, the remaining lambaris were transferred to clean tanks with 4 L of water and fed uncontaminated feed three times a day. It is worth noting that one fish was randomly selected and sampled during the exposure (days 1, 2, 3, 4, 5, 6, and 7) and depletion (8, 9, 10, 11, 12, 13, and 14) periods of each tank; the selected lambari was euthanized with a 0.2 mg.mL^−1 benzocaine immersion bath and frozen for later analysis.
Fish samples were burned in the Oxidizer OX500 (RJ—Harvey Instrument Corporation, Buffalo, NY, USA) in an oxygen-rich atmosphere, where 10 mL of scintillation liquid (permafluor) was used per sample. Measurement was by liquid scintillation counting (LSC) with a Tri-Carb 2910 TR LSA counter (Perkin Elmer, Waltham, MA, USA).
On day 7 (the last day of bioaccumulation) and day 14 (the last day of depletion), the aquarium water was filtered through filter paper (Whatman 42) to collect background material (metabolic excrement). The analyses of the excreta were conducted in the same way as the procedures described for fish. In addition, water samples from each aquarium were sampled in triplicate at the exposure phase (beginning and end) to determine the radiolabeled molecule, using liquid scintillation counters (LSC) with a Tri-Carb 2910 TR LSA counter (Perkin Elmer).

[5] = tested on: common carp (Cyprinus carpio); conditions: cited from earlier work

## Nc1ccc(S(=O)(=O)Nc2ncccn2)cc1 [Sulfadiazine, 4-Amino-N-(2-pyrimidinyl)benzenesulfonamide]
[1]
  BCF: 4100 L/kg
  concentration of SDZ in the organisms on the seventh day of depletion: 1.0 × 10^−4 mg·g ^−1
[1]; day 4, SDZ fed in the diet 0.0330 μg·mg^−1
  highest accumulation of SDZ in the organisms: 5.10 × 10 ^−4 mg·g^−1
[2]
  BCF: 2.1 to 891.5 L/kg
[3]
  Log P: −0.09
Danio rerio
  bioaccumulated amount of SDZ: 4.15 Bq and 5.41 Bq
  eliminated amount of SDZ: 3.79 Bq and 5.21 Bq
[4]; after two days of the depletion phase (7–9 days)
  accumulated SDZ eliminated by the organisms: 93.12%
[4]; column Bioaccumulation, model fit
  ke, elimination constant: 0.3956 day⁻¹
[4]; column Depletion, model fit
  A, pre-exponential term: 186.2 ng/g
  ku, absorption constant: 0.6155 mL/g/day
[4]; column Depletion, listed as 14C-sulfadiazine
  T1/2, half-life time: 1.126 days
[4]; column Depletion, listed as SDZ
  T1/2, half-life time: 1.13 days
[4]; day 7 of exposure, medicated feed 2.5 mg·g^−1 three times a day, listed as SDZ
  maximum (peak) concentration of SDZ in fish: 91.7 ng/g and 91.72 ng/g
[4]; day 13, end of experiment
  concentration of SDZ in fish after depletion phase: 0.83 ng/g
[4]; depletion phase period (7–13 days)
  accumulated 14C-SDZ eliminated by the fish: 93.12%
[4]; depletion, abstract
  concentration of SDZ in excreta in the depletion period: 5.96 ng/g
[4]; during exposure (bioaccumulation) and elimination (depletion) phases
  concentration of SDZ in fish relative to the MRL: < 100 ng/g
[4]; elimination 7–13 days
  concentration of SDZ in excreta (sediment), elimination (depletion) phase: 5.9e-06 mg/g
  concentration of SDZ in the water, depletion phase: 25 pg/mL
[4]; end of exposure phase, abstract
  concentration of SDZ in excreta after the bioaccumulation period: 363.5 ng/g
[4]; exposure 1–7 days
  concentration of SDZ in excreta (sediment), exposure phase (Bioaccumulation): 0.00036 mg/g
  concentration of SDZ in the water, end of exposure phase (Bioaccumulation): 4.6 ng/mL
[4]; lambari, BCF=Ca/Cw
  bioconcentration factor (BCF): 20 L/kg
[4]; mass balance
  SDZ applied in the diet bioaccumulated in the fish (mass balance): 0.21%
  SDZ applied in the diet remaining in the excreta (mass balance): 0.69%
  SDZ applied in the diet remaining in the water (mass balance): 115%
[5]
  BCF: 2.73 to 165.73 L/kg
